Test results reported in patent US10968225B2, “Compounds and compositions for the treatment of cystic fibrosis” (Fondazione Istituto Italiano Di Tecnologia, priority 2017, dated 2021).
pEC50: −log10 of the molar value.

biological target: T1, mutant CFTR (Homo sapiens, UniProt P13569, DEL508-508); test: Fluorescence (HS-YFP) assay for CFTR activity, corrector assay; type: cell-based; conditions: CFBE41o- and FRT cells with stable expression of mutant CFTR, read-out: activity (EC50)
T1 construct: expressed in transfected cells
T1 sequence (P13569 with tags, fused parts or gaps DEL508-508): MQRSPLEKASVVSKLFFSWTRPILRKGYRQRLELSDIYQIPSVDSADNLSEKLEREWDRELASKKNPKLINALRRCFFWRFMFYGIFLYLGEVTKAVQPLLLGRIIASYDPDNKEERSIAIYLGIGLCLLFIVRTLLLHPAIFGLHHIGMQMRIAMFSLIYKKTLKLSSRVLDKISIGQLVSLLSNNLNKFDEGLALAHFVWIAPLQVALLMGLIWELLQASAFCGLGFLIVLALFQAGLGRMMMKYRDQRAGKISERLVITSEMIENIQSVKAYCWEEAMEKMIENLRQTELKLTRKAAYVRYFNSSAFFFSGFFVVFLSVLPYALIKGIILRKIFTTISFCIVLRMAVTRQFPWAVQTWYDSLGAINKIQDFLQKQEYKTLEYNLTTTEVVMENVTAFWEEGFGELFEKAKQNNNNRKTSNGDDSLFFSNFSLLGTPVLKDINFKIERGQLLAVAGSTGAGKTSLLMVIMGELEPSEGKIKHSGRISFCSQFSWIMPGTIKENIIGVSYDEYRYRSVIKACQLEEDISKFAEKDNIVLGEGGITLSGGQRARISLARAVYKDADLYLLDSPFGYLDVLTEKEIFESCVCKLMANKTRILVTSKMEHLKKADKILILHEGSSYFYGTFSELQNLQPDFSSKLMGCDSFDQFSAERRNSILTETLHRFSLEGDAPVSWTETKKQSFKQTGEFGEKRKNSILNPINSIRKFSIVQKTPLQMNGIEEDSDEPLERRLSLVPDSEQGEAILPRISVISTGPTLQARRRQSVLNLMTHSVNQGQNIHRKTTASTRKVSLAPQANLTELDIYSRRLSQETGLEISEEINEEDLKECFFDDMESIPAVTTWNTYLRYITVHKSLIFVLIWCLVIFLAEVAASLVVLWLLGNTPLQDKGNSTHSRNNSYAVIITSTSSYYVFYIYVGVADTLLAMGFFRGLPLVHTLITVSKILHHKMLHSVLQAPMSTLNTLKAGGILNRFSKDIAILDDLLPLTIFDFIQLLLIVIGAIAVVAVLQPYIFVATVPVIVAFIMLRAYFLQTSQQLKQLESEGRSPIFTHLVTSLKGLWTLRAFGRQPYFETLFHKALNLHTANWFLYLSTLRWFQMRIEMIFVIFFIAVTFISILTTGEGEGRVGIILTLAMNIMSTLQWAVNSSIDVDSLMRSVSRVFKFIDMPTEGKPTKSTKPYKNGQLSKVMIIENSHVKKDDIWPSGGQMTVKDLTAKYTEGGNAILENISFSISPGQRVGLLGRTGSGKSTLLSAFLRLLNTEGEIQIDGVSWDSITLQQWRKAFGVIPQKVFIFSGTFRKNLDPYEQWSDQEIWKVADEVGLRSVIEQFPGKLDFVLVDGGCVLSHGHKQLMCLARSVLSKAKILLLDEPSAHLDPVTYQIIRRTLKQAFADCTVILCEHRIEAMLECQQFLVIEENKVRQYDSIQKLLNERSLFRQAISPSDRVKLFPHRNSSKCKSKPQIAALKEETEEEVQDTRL

CN(C(=O)c1cccc(-n2nc(C(F)(F)F)c3c2C[C@H]2CC[C@@H]3N2C(=O)C(C)(C)C)c1)c1ccc2c(c1)OCO2 (single isomer, unassigned) [Compound 087, (4R,7S)- or (4S,7R)—N-(Benzo[d][1,3]dioxol-5-yl)-N-methyl-3-[(9-pivaloyl-3-(trifluoromethyl)-5,6,7,8-tetrahydro-4,7-epiminocyclohepta[c]pyrazol-1(4H)-yl)]benzamide] and CN(C(=O)c1cccc(-n2nc(C(F)(F)F)c3c2C[C@@H]2CC[C@H]3N2C(=O)C(C)(C)C)c1)c1ccc2c(c1)OCO2 (single isomer, unassigned) [Compound 088, (4R,7S)- or (4S,7R)—N-(Benzo[d][1,3]dioxol-5-yl)-N-methyl-3-[(9-pivaloyl-3-(trifluoromethyl)-5,6,7,8-tetrahydro-4,7-epiminocyclohepta[c]pyrazol-1(4H)-yl)]benzamide] cannot be ordered by pEC50: greater than 6.00 for the first, greater than 6.00 for the second.

Cc1noc(C)c1S(=O)(=O)N1[C@@H]2CC[C@H]1c1c(C(F)(F)F)nn(-c3cccc(C(=O)N(C)c4ccc5c(c4)OCO5)c3)c1C2 (single isomer, unassigned) [Compound 128, (4S,7R)- or (4R,7S)—N-(Benzo[d][1,3]dioxol-5-yl)-3-(9-((3,5-dimethylisoxazol-4-yl)sulfonyl)-3-(trifluoromethyl)-5,6,7,8-tetrahydro-4,7-epiminocyclohepta[c]pyrazol-1(4H)-yl)-N-methylbenzamide] and Cc1noc(C)c1S(=O)(=O)N1[C@H]2CC[C@@H]1c1c(C(F)(F)F)nn(-c3cccc(C(=O)N(C)c4ccc5c(c4)OCO5)c3)c1C2 (single isomer, unassigned) [Compound 129, (4R,7S)- or (4S,7R)—N-(Benzo[d][1,3]dioxol-5-yl)-3-(9-((3,5-dimethylisoxazol-4-yl)sulfonyl)-3-(trifluoromethyl)-5,6,7,8-tetrahydro-4,7-epiminocyclohepta[c]pyrazol-1(4H)-yl)-N-methylbenzamide] cannot be ordered by pEC50: greater than 6.00 for the first, greater than 6.00 for the second.

Cc1n[nH]c(C)c1S(=O)(=O)N1[C@H]2CC[C@@H]1c1c(C(F)(F)F)nn(-c3cccc(C(=O)N(C)c4ccc5c(c4)OCO5)c3)c1C2 (single isomer, unassigned) [Compound 130, (4R,7S)- or (4S,7R)—N-(Benzo[d][1,3]dioxol-5-yl)-3-(9-((3,5-dimethyl-1H-pyrazol-4-yl)sulfonyl)-3-(trifluoromethyl)-5,6,7,8-tetrahydro-4,7-epiminocyclohepta[c]pyrazol-1(4H)-yl)-N-methylbenzamide] and CN(C(=O)c1cccc(-n2nc(C(F)(F)F)c3c2C[C@@H]2CC[C@H]3N2C2CCC2)c1)c1ccc2c(c1)OCO2 (single isomer, unassigned) [Compound 131, (4R,7S)- or (4S,7R)—N-(Benzo[d][1,3]dioxol-5-yl)-3-(9-cyclobutyl-3-(trifluoromethyl)-5,6,7,8-tetrahydro-4,7-epiminocyclohepta[c]pyrazol-1(4H)-yl)-N-methylbenzamide] cannot be ordered by pEC50: greater than 6.00 for the first, greater than 6.00 for the second.

CN(C(=O)c1cccc(-n2nc(C(F)(F)F)c3c2C(Oc2ccc(C(=O)O)cc2)CCC3)c1)c1ccc2c(c1)OC(F)(F)O2 (single isomer, unassigned) [Compound 150, (R) or (S)-4-[[1-[3-[(2,2-Difluoro-1,3-benzodioxol-5-yl)-methyl-carbamoyl]phenyl]-3-(trifluoromethyl)-4,5,6,7-tetrahydroindazol-7-yl]oxy]benzoic acid] and CN(C(=O)c1cccc(-n2nc(C(F)(F)F)c3c2C(Oc2cccc(C(=O)O)c2)CCC3)c1)c1ccc2c(c1)OC(F)(F)O2 (single isomer, unassigned) [Compound 188, (S) or (R)-3-[[1-[3-[(2,2-Difluoro-1,3-benzodioxol-5-yl)-methyl-carbamoyl]phenyl]-3-(trifluoromethyl)-4,5,6,7-tetrahydroindazol-7-yl]oxy]benzoic acid] cannot be ordered by pEC50: greater than 6.00 for the first, greater than 6.00 for the second.

CN(C(=O)c1cccc(-n2nc(C(F)(F)F)c3c2C(Oc2ccc(C(=O)O)cc2)CCC3)c1)c1ccc2c(c1)OC(F)(F)O2 (single isomer, unassigned) [Compound 151, (S) or (R)-4-[[1-[3-[(2,2-Difluoro-1,3-benzodioxol-5-yl)-methyl-carbamoyl]phenyl]-3-(trifluoromethyl)-4,5,6,7-tetrahydroindazol-7-yl]oxy]benzoic acid] and CN(C(=O)c1cccc(-n2nc(C(F)(F)F)c3c2C(Oc2cccc(C(=O)O)c2)CCC3)c1)c1ccc2c(c1)OC(F)(F)O2 (single isomer, unassigned) [Compound 190, (R) or (S)-3-[[1-[3-[(2,2-Difluoro-1,3-benzodioxol-5-yl)-methyl-carbamoyl]phenyl]-3-(trifluoromethyl)-4,5,6,7-tetrahydroindazol-7-yl]oxy]benzoic acid] cannot be ordered by pEC50: greater than 6.00 for the first, greater than 6.00 for the second.

CN(C(=O)c1cccc(-n2nc(C(F)(F)F)c3c2C(Oc2ccc(C(=O)O)nc2)CCC3)c1)c1ccc2c(c1)OC(F)(F)O2 (single isomer, unassigned) [Compound 185, (S) or (R)-5-[[-1-[3-[(2,2-Difluoro-1,3-benzodioxol-5-yl)-methyl-carbamoyl]phenyl]-3-(trifluoromethyl)-4,5,6,7-tetrahydroindazol-7-yl]oxy]pyridine-2-carboxylic acid] and CN(C(=O)c1cccc(-n2nc(C(F)(F)F)c3c2C(Oc2ccc(C(=O)O)cn2)CCC3)c1)c1ccc2c(c1)OC(F)(F)O2 (single isomer, unassigned) [Compound 192, (S) or (R)-6-[[1-[3-[(2,2-Difluoro-1,3-benzodioxol-5-yl)-methyl-carbamoyl]phenyl]-3-(trifluoromethyl)-4,5,6,7-tetrahydroindazol-7-yl]oxy]pyridine-3-carboxylic acid] cannot be ordered by pEC50: greater than 6.00 for the first, greater than 6.00 for the second.

CN(C(=O)c1cccc(-n2nc(C(F)(F)F)c3c2C(Oc2ccc(C(=O)O)nc2)CCC3)c1)c1ccc2c(c1)OC(F)(F)O2 (single isomer, unassigned) [Compound 186, (R) or (S)-5-[[1-[3-[(2,2-Difluoro-1,3-benzodioxol-5-yl)-methyl-carbamoyl]phenyl]-3-(trifluoromethyl)-4,5,6,7-tetrahydroindazol-7-yl]oxy]pyridine-2-carboxylic acid] and CN(C(=O)c1cccc(-n2nc(C(F)(F)F)c3c2C(Oc2ccc(C(=O)O)cn2)CCC3)c1)c1ccc2c(c1)OC(F)(F)O2 (single isomer, unassigned) [Compound 194, (R) or (S)-6-[[1-[3-[(2,2-Difluoro-1,3-benzodioxol-5-yl)-methyl-carbamoyl]phenyl]-3-(trifluoromethyl)-4,5,6,7-tetrahydroindazol-7-yl]oxy]pyridine-3-carboxylic acid] cannot be ordered by pEC50: greater than 6.00 for the first, greater than 6.00 for the second.

CN(C(=O)c1cccc(-n2nc(C(F)(F)F)c3c2C(Oc2cc(C(=O)O)ccn2)CCC3)c1)c1ccc2c(c1)OC(F)(F)O2 (single isomer, unassigned) [Compound 196, (S) or (R)-2-[[1-[3-[(2,2-Difluoro-1,3-benzodioxol-5-yl)-methyl-carbamoyl]phenyl]-3-(trifluoromethyl)-4,5,6,7-tetrahydroindazol-7-yl]oxy]pyridine-4-carboxylic acid] and CN(C(=O)c1cccc(-n2nc(C(F)(F)F)c3c2C(Oc2cncc(C(=O)O)c2)CCC3)c1)c1ccc2c(c1)OC(F)(F)O2 (single isomer, unassigned) [Compound 271, (S) or (R)-5-[[1-[3-[(2,2-Difluoro-1,3-benzodioxol-5-yl)-methyl-carbamoyl]phenyl]-3-(trifluoromethyl)-4,5,6,7-tetrahydroindazol-7-yl]oxy]pyridine-3-carboxylic acid] cannot be ordered by pEC50: greater than 6.00 for the first, greater than 6.00 for the second.

First: CN(C(=O)c1cccc(-n2nc(C(F)(F)F)c3c2C(Oc2cc(C(=O)O)ccn2)CCC3)c1)c1ccc2c(c1)OC(F)(F)O2 (single isomer, unassigned) [Compound 198, (R) or (S)-2-[[1-[3-[(2,2-Difluoro-1,3-benzodioxol-5-yl)-methyl-carbamoyl]phenyl]-3-(trifluoromethyl)-4,5,6,7-tetrahydroindazol-7-yl]oxy]pyridine-4-carboxylic acid]
Second: CN(C(=O)c1cccc(-n2nc(C(F)(F)F)c3c2C(Oc2cncc(C(=O)O)c2)CCC3)c1)c1ccc2c(c1)OC(F)(F)O2 (single isomer, unassigned) [Compound 272, (R) or (S)-5-[[1-[3-[(2,2-Difluoro-1,3-benzodioxol-5-yl)-methyl-carbamoyl]phenyl]-3-(trifluoromethyl)-4,5,6,7-tetrahydroindazol-7-yl]oxy]pyridine-3-carboxylic acid]
The pEC50 of the first is higher: greater than 6.00 for the first, 5.70 to 6.00 for the second.

CN(C(=O)c1cccc(-n2nc(C(F)(F)F)c3c2C(Oc2ccc(C(=O)O)cc2)COC3)c1)c1ccc2c(c1)OC(F)(F)O2 (single isomer, unassigned) [Compound 205, (R) or (S)-4-[[1-[3-[(2,2-Difluoro-1,3-benzodioxol-5-yl)-methyl-carbamoyl]phenyl]-3-(trifluoromethyl)-6,7-dihydro-4H-pyrano[4,3-c]pyrazol-7-yl]oxy]benzoic acid] and Cc1cc2ncc(N(C)C(=O)c3cccc(-n4nc(C(F)(F)F)c5c4[C@H](Oc4ccc(C(=O)O)cc4)CCC5)c3)cn2n1 (single isomer, unassigned) [Compound 217, (S) or (R)-4-[[1-[3-[Methyl-(2-methylpyrazolo[1,5-a]pyrimidin-6-yl)carbamoyl]phenyl]-3-(trifluoromethyl)-4,5,6,7-tetrahydroindazol-7-yl]oxy]benzoic acid] cannot be ordered by pEC50: greater than 6.00 for the first, greater than 6.00 for the second.

First: CN(C(=O)c1cccc(-n2nc(C(F)(F)F)c3c2C(Oc2ccc(C(=O)O)cc2)COC3)c1)c1ccc2c(c1)OC(F)(F)O2 (single isomer, unassigned) [Compound 206, (S) or (R)-4-[[1-[3-[(2,2-Difluoro-1,3-benzodioxol-5-yl)-methyl-carbamoyl]phenyl]-3-(trifluoromethyl)-6,7-dihydro-4H-pyrano[4,3-c]pyrazol-7-yl]oxy]benzoic acid]
Second: Cc1cc2ncc(N(C)C(=O)c3cccc(-n4nc(C(F)(F)F)c5c4[C@@H](Oc4ccc(C(=O)O)cc4)CCC5)c3)cn2n1 (single isomer, unassigned) [Compound 218, (R) or (S)-4-[[1-[3-[Methyl-(2-methylpyrazolo[1,5-a]pyrimidin-6-yl)carbamoyl]phenyl]-3-(trifluoromethyl)-4,5,6,7-tetrahydroindazol-7-yl]oxy]benzoic acid]
The pEC50 of the first is higher: greater than 6.00 for the first, 5.70 to 6.00 for the second.
